Reference: US7763638B2, “Substituted 1,2,3,4-tetrahydroisoquinoline derivatives” (Actelion Pharmaceuticals Ltd., priority 2004, dated 2010)

Tests used:
male Wistar rats = experiment: Spontaneous home cage activity and body temperature measured by radiotelemetry; assay type: in vivo, rat; conditions: oral administration, home cage activity by telemetry
Text: In Vivo Assay: Spontaneous Home Cage Activity and Body Temperature Measured by Radiotelemetry in Laboratory Rats:
The objective of the present test is to record the circadian behavioral activity of rats after oral administration of a compound according to general formula (I) of the invention.
Decreased home cage activity measured by telemetry in male Wistar rats was considered as an indication for sleep-inducing potential of a restricted number of highly optimized 1,2,3,4-tetrahydroisoquinoline derivatives.
Psychotropic drugs such as antidepressants, antipsychotics, sleep inducers or psychostimulants are well known to reduce or enhance home cage activity and body temperature following oral administration to laboratory animals. Thermoregulation is a complex process that contributes to homeostasis by coordinating metabolism, energy balance and behaviour. Body temperature changes with circadian behavioural activity and increases when locomotion increases. These two parameters were measured by telemetry in conscious freely moving Wistar rats. Anaesthetized animals were implanted, under aseptic conditions, with a body temperature/activity telemetric device into the peritoneal cavity. More than two weeks after the implantation of the telemetry system, data were collected at 5 minutes intervals during 96 hours. Hourly means were calculated for each rat. The first 48 h were used as an internal control trace and drug effects were compared to vehicle placebo. This method is validated pharmacologically by measuring amplitude and time course of both hypoactivity and hypothermia induced by GABA-A receptor modulators such as zolpidem.

CYP3A4 = target: T1, CYP3A4 (Homo sapiens, UniProt P08684); experiment: Inhibitory potency against CYPs in human liver microsomes; assay type: in vitro ADME; conditions: human liver microsomes 0.25 mg/ml, midazolam (5 μM) 1'-hydroxylation, 5 min
T1 construct: performed using human liver microsomes (pool of 10 individuals); from tissue; host or cells: human liver microsomes, pool of 10 individuals
Procedure: Measurements of the Inhibitory Potency Against Different CYPs:
The CYP inhibition studies are performed using human liver microsomes (pool of 10 individuals), literature-established CYP isoform-selective substrates and quantification by either LC-MS/MS (for CYP3A4 and CYP2C9) or conventional HPLC with fluorimetric detection (for CYP2D6). The specific probes were midazolam 1′-hydroxylation for CYP3A4, dextromethorphan 3-hydroxylation for CYP2D6 and diclofenac 4′-hydroxylation for CYP2C9. […] Controls (sulfaphenazole for CYP2C9, fluoxetine for CYP2D6, and nicardipine for CYP3A4) were run in parallel in each plate.

T1 sequence (P08684 whole entry): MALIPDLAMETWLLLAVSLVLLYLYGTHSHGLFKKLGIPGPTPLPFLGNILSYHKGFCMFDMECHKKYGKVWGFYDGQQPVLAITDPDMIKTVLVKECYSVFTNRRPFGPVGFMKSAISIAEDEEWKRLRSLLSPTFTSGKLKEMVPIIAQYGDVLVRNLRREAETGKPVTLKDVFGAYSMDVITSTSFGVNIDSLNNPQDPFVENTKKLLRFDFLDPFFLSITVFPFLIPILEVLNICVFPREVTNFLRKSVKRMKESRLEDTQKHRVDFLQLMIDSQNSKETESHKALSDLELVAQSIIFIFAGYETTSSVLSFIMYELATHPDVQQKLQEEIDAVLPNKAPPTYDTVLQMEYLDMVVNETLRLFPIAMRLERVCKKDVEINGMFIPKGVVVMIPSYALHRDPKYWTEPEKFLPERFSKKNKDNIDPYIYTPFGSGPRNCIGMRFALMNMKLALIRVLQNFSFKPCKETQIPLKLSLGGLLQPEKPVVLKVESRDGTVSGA

IC50 (CYP3A4) [µM] | SMILES | p.o activity (male Wistar rats)
 | CNC(=O)C(c1ccccc1)N1CCc2cc(OC)c(OC)cc2C1CCc1ccc(C(F)(F)F)cc1 (mixture of isomers) [Example 1, 2-{6,7-dimethoxy-1-[2-(4-trifluoromethyl-phenyl)-ethyl]-3,4-dihydro-1H-isoquinolin-2-yl}-N-methyl-2-phenyl-acetamide] | yes
 | CNC(=O)[C@@H](c1ccccc1)N1CCc2cc(OC)c(OC)cc2[C@@H]1CCc1ccc(C(F)(F)F)cc1 [Example 2, (2R)-2-{(1S)-6,7-dimethoxy-1-[2-(4-trifluoromethyl-phenyl)-ethyl]-3,4-dihydro-1H-isoquinolin-2-yl}-N-methyl-2-phenyl-acetamide] | yes
18 | CNC(=O)C(c1ccccc1)N1CCc2cc(OC)c(OC)cc2C1CCc1ccc(C(F)(F)F)nc1 (stereo not drawn) [Example 3, 2-{6,7-dimethoxy-1-[2-(6-trifluoromethyl-pyridin-3-yl)-ethyl]-3,4-dihydro-1H-isoquinolin-2-yl}-N-methyl-2-phenyl-acetamide] | yes
50 | CNC(=O)[C@@H](c1ccccc1)N1CCc2cc(OC)c(OC)cc2[C@@H]1CCc1ccc(C(F)(F)F)nc1 [Example 4, (2R)-2-{(1S)-6,7-dimethoxy-1-[2-(6-trifluoromethyl-pyridin-3-yl)-ethyl]-3,4-dihydro-1H-isoquinolin-2-yl}-N-methyl-2-phenyl-acetamide] | yes
